Source: patent US20240358693A1, “METHODS OF TREATING PAIN” (Aisa Pharma, Inc., priority 2023, published 2024)

System: participants with SSc-RP
Assay: Average severity of weekly RP attacks (VAS 0-10 cm scale)
Format: in vivo, human
From the text: The absolute change in average severity of weekly RP attacks (VAS 0-10 cm scale) from baseline to the end of each Dosing Period was and will be a secondary outcome variable. The sponsor-developed participant-informed diary will be used to record data. Average severity of weekly RP attacks is defined as the total severity scores of RP attacks divided by total number of RP attacks within the last 7 days of each dosing period. Total severity scores of RP attacks during the last 7 days of screening period divided by the total number of RP attacks will be used as baseline for the analysis of all periods. The variable will be calculated similar to frequency data as before.

[1] = Pooled Cilnidipine 10 mg and Cilnidipine 10 mg + Tadalafil 5 mg, n=1, by Baseline RCS, second subgroup, ITT Population - Part A
[2] = Pooled Cilnidipine 10 mg and Cilnidipine 10 mg + Tadalafil 5 mg, n=2, by Baseline RCS, first subgroup, ITT Population - Part A
[3] = Pooled Cilnidipine 10 mg and Cilnidipine 10 mg + Tadalafil 5 mg, n=3, Excluding Outliers, ITT Population - Part A
[4] = Pooled Cilnidipine 10 mg and Cilnidipine 10 mg + Tadalafil 5 mg, n=3, ITT Population - Part A
[5] = Pooled Cilnidipine 10 mg and Cilnidipine 10 mg + Tadalafil 5 mg, Excluding Outliers, ITT Population - Part A
[6] = Pooled Cilnidipine 10 mg and Cilnidipine 10 mg + Tadalafil 5 mg, Excluding Outliers, by Baseline RCS, first subgroup, ITT Population - Part A
[7] = Pooled Cilnidipine 10 mg and Cilnidipine 10 mg + Tadalafil 5 mg, Excluding Outliers, by Baseline RCS, second subgroup, ITT Population - Part A
[8] = Pooled Cilnidipine 10 mg and Cilnidipine 10 mg + Tadalafil 5 mg, ITT Population - Part A
[9] = Pooled Cilnidipine 10 mg and Cilnidipine 10 mg + Tadalafil 5 mg, first Baseline RCS subgroup block (not named), ITT Part A
[10] = Pooled Cilnidipine 10 mg and Cilnidipine 10 mg + Tadalafil 5 mg, first Baseline RCS subgroup block (not named), ITT Part A, score 0-10
[11] = Pooled Cilnidipine 10 mg and Cilnidipine 10 mg + Tadalafil 5 mg, second Baseline RCS subgroup block (not named), ITT Part A
[12] = Pooled Cilnidipine 10 mg and Cilnidipine 10 mg + Tadalafil 5 mg, second Baseline RCS subgroup block (not named), ITT Part A, score 0-10
[13] = Pooled Cilnidipine 20 mg and Cilnidipine 20 mg + Tadalafil 5 mg, n=1, by Baseline RCS, second subgroup, ITT Population - Part A
[14] = Pooled Cilnidipine 20 mg and Cilnidipine 20 mg + Tadalafil 5 mg, n=3, by Baseline RCS, first subgroup, ITT Population - Part A

COCCOC(=O)C1=C(C)NC(C)=C(C(=O)OC/C=C/c2ccccc2)C1c1cccc([N+](=O)[O-])c1 (stereo not shown) [Cilnidipine, cilnidipine]
Average Severity of Weekly RP Attacks (All Attacks), Percent Change from Baseline, Median (Pooled (over cilnidipine doses), ITT Population - Part A): −7.69%
Average Severity (0-10) of Weekly Symptomatic RP Attacks, Mean [1]: 5.23
Average Severity (0-10) of Weekly Symptomatic RP Attacks, Median [1]: 5.23
Average Severity of Weekly Symptomatic RP Attacks, Change from Baseline, Mean [1]: −1.13
Average Severity of Weekly Symptomatic RP Attacks, Change from Baseline, Median [1]: −1.13
Average Severity of Weekly Symptomatic RP Attacks, Percent Change from Baseline, Mean [1]: −17.81%
Average Severity of Weekly Symptomatic RP Attacks, Percent Change from Baseline, Median [1]: −17.81%
Average Severity (0-10) of Weekly Symptomatic RP Attacks, Mean [2]: 3.34
Average Severity (0-10) of Weekly Symptomatic RP Attacks, Median [2]: 3.34
Average Severity of Weekly Symptomatic RP Attacks, Change from Baseline, Mean [2]: −1.22
Average Severity of Weekly Symptomatic RP Attacks, Change from Baseline, Median [2]: −1.22
Average Severity of Weekly Symptomatic RP Attacks, Percent Change from Baseline, Mean [2]: −20.18%
Average Severity of Weekly Symptomatic RP Attacks, Percent Change from Baseline, Median [2]: −20.18%
Average Severity (0-10) of Weekly Symptomatic RP Attacks, Mean [3]: 3.97
Average Severity (0-10) of Weekly Symptomatic RP Attacks, Median [3]: 3.77
Average Severity of Weekly Symptomatic RP Attacks, Change from Baseline, Mean [3]: −1.19
Average Severity of Weekly Symptomatic RP Attacks, Change from Baseline, Median [3]: −1.13
Average Severity of Weekly Symptomatic RP Attacks, Percent Change from Baseline, Mean [3]: −19.39%
Average Severity of Weekly Symptomatic RP Attacks, Percent Change from Baseline, Median [3]: −17.81%
Average Severity (0-10) of Weekly Symptomatic RP Attacks, Mean [4]: 3.97
Average Severity (0-10) of Weekly Symptomatic RP Attacks, Median [4]: 3.77
Average Severity of Weekly Symptomatic RP Attacks, Change from Baseline, Mean [4]: −1.19
Average Severity of Weekly Symptomatic RP Attacks, Change from Baseline, Median [4]: −1.13
Average Severity of Weekly Symptomatic RP Attacks, Percent Change from Baseline, Mean [4]: −19.39%
Average Severity of Weekly Symptomatic RP Attacks, Percent Change from Baseline, Median [4]: −17.81%
Average Severity of Weekly RP Attacks (All Attacks), Change from Baseline, Mean [5]: −1.34
Average Severity of Weekly RP Attacks (All Attacks), Change from Baseline, Median [5]: −1.32
Average Severity of Weekly RP Attacks (All Attacks), Mean [5]: 3.62
Average Severity of Weekly RP Attacks (All Attacks), Median [5]: 3.05
Average Severity of Weekly RP Attacks (All Attacks), Percent Change from Baseline, Mean [5]: −23.02%
Average Severity of Weekly RP Attacks (All Attacks), Percent Change from Baseline, Median [5]: −21.20%
Average Severity of Weekly Symptomatic RP Attacks (Mean) [6]: 3.34
Average Severity of Weekly Symptomatic RP Attacks (Median) [6]: 3.34
Average Severity of Weekly Symptomatic RP Attacks, Change from Baseline, Mean [6]: −1.22
Average Severity of Weekly Symptomatic RP Attacks, Change from Baseline, Median [6]: −1.22
Average Severity of Weekly Symptomatic RP Attacks, Percent Change from Baseline, Mean [6]: −20.18%
Average Severity of Weekly Symptomatic RP Attacks, Percent Change from Baseline, Median [6]: −20.18%
Average Severity of Weekly Symptomatic RP Attacks (Mean) [7]: 5.23
Average Severity of Weekly Symptomatic RP Attacks (Median) [7]: 5.23
Average Severity of Weekly Symptomatic RP Attacks, Change from Baseline, Mean [7]: −1.13
Average Severity of Weekly Symptomatic RP Attacks, Change from Baseline, Median [7]: −1.13
Average Severity of Weekly Symptomatic RP Attacks, Percent Change from Baseline, Mean [7]: −17.81%
Average Severity of Weekly Symptomatic RP Attacks, Percent Change from Baseline, Median [7]: −17.81%
Average Severity of Weekly RP Attacks (All Attacks), Change from Baseline, Mean [8]: −1.34
Average Severity of Weekly RP Attacks (All Attacks), Change from Baseline, Median [8]: −1.32
Average Severity of Weekly RP Attacks (All Attacks), Mean [8]: 3.62
Average Severity of Weekly RP Attacks (All Attacks), Median [8]: 3.05
Average Severity of Weekly RP Attacks (All Attacks), Percent Change from Baseline, Mean [8]: −23.02%
Average Severity of Weekly RP Attacks (All Attacks), Percent Change from Baseline, Median [8]: −21.20%
Average Severity of Weekly RP Attacks (All Attacks), Percent Change from Baseline, Mean [9]: −23.94%
Average Severity of Weekly RP Attacks (All Attacks), Percent Change from Baseline, Median [9]: −23.94%
Average Severity of Weekly RP Attacks (All Attacks), Change from Baseline, Mean [10]: −1.35
Average Severity of Weekly RP Attacks (All Attacks), Change from Baseline, Median [10]: −1.35
Average Severity of Weekly RP Attacks (All Attacks), Mean [10]: 2.97
Average Severity of Weekly RP Attacks (All Attacks), Median [10]: 2.97
Average Severity of Weekly RP Attacks (All Attacks), Percent Change from Baseline, Mean [11]: −21.20%
Average Severity of Weekly RP Attacks (All Attacks), Percent Change from Baseline, Median [11]: −21.20%
Average Severity of Weekly RP Attacks (All Attacks), Change from Baseline, Mean [12]: −1.32
Average Severity of Weekly RP Attacks (All Attacks), Change from Baseline, Median [12]: −1.32
Average Severity of Weekly RP Attacks (All Attacks), Mean [12]: 4.90
Average Severity of Weekly RP Attacks (All Attacks), Median [12]: 4.90
Average Severity (0-10) of Weekly Symptomatic RP Attacks, Mean [13]: 5.06
Average Severity (0-10) of Weekly Symptomatic RP Attacks, Median [13]: 5.06
Average Severity of Weekly Symptomatic RP Attacks, Change from Baseline, Mean [13]: −1.79
Average Severity of Weekly Symptomatic RP Attacks, Change from Baseline, Median [13]: −1.79
Average Severity of Weekly Symptomatic RP Attacks, Percent Change from Baseline, Mean [13]: −26.14%
Average Severity of Weekly Symptomatic RP Attacks, Percent Change from Baseline, Median [13]: −26.14%
Average Severity (0-10) of Weekly Symptomatic RP Attacks, Mean [14]: 2.85
Average Severity (0-10) of Weekly Symptomatic RP Attacks, Median [14]: 2.40
Average Severity of Weekly Symptomatic RP Attacks, Change from Baseline, Mean [14]: −1.06
Average Severity of Weekly Symptomatic RP Attacks, Change from Baseline, Median [14]: −0.33
Average Severity of Weekly Symptomatic RP Attacks, Percent Change from Baseline, Mean [14]: −24.28%
Average Severity of Weekly Symptomatic RP Attacks, Percent Change from Baseline, Median [14]: −12.02%
